pIC50: −log10 of the molar value.
Tests used:
[1] = biological target: T1, recombinant METTL3/METTL14 complex (Homo sapiens, UniProt Q86U44); experiment: METTL3/14 Scintillation Proximity Assay (SPA), RNA methyltransferase activity; assay type: biochemical; details: 5.31 nM METTL3/14 complex, 250 nM RNA substrate, 1 μM 3H-SAM, 90 min; for compounds marked * best of the two separated forms
T1 construct: purchased Active Motif 311970; host or cells: Sf9 cells

[2] = system: Caov-3 cells; experiment: Caov-3 cellular viability assay (ATP-Lite, 72 h); assay type: cell-based; details: Homo sapiens, ATP-Lite luminescence, % viability relative to DMSO
Outline: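 10000 cells/well treated 72 h at 37 °C, 5% CO2, in RPMI-1640 with 10% FBS and 0.1% DMSO final. Viability by ATP-Lite One Step luminescence. Expressed as % of DMSO control, with IC50 from each compound's concentration-response curve.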

[3] = system: Kasumi-1 cells; experiment: Kasumi-1 cellular viability assay (ATP-Lite, 72 h); assay type: cell-based; details: Homo sapiens, ATP-Lite luminescence, % viability relative to DMSO
Outline: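 Kasumi-1 AML cells, 15000/well in RPMI-1640 with 10% FBS, were exposed to compound titrations (0.1% final DMSO) for 72 h at 37 °C, 5% CO2. ATP-Lite One Step luminescence gave % viability versus DMSO control, and IC50 came from the concentration-response.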

T1 sequence (Q86U44 whole entry): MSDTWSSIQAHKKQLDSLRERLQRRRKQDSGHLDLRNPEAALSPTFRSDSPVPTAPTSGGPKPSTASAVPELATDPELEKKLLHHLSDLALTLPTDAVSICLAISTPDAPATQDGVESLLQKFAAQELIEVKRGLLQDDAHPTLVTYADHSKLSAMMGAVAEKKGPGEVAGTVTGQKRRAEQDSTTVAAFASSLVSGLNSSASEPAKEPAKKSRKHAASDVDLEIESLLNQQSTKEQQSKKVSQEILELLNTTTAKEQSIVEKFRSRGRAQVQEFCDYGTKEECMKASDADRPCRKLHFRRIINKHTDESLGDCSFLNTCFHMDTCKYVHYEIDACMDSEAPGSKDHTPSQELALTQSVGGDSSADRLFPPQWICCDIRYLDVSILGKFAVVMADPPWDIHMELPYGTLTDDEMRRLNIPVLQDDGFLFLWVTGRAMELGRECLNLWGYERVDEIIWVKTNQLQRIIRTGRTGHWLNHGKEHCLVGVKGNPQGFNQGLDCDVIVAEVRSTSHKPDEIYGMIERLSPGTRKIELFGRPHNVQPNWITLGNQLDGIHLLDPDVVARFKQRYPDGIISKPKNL
T1 sequence (Q9HCE5 whole entry partner): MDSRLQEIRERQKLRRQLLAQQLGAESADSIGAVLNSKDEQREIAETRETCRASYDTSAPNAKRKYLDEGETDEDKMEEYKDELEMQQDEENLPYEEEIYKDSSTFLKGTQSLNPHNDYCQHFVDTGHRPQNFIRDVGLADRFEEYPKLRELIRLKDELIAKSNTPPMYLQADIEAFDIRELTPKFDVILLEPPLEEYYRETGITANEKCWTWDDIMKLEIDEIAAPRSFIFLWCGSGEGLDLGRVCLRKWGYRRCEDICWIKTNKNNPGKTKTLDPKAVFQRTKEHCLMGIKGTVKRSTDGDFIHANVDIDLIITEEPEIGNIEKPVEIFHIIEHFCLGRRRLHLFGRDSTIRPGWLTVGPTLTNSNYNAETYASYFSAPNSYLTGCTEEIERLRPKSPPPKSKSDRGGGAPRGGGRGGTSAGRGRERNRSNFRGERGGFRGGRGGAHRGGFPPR

SMILES | pIC50 [1] | pIC50 [2] | pIC50 [3]
c1cc(N2CCC[C@@H](NCC3CC3)C2)ncc1C1(n2cc(-c3cncc(N4CCCC4)n3)nn2)COC1 [Compound 207, (R)-N-(cyclopropylmethyl)-1-(5-(3-(4-(6-(pyrrolidin-1-yl)pyrazin-2-yl)-1H-1,2,3-triazol-1-yl)oxetan-3-yl)pyridin-2-yl)piperidin-3-amine] | ≥ 7.30 | ≥ 6.30 | ≥ 6.30
CC(C(=O)Nc1cncc(N2CCCC2)c1)n1ccc(N2CCC[C@@H](NCC3CCC3)C2)cc1=O (stereo partly drawn) [Compound 208, 2-(4-((R)-3-((cyclobutylmethyl)amino)piperidin-1-yl)-2-oxopyridin-1(2H)-yl)-N-(5-(pyrrolidin-1-yl)pyridin-3-yl)propanamide] | ≥ 7.30 | 5.30 to 6.30 | 5.30 to 6.30
c1ncc(N2CCCC2)cc1-c1cn(C2(c3ccc(N4CCC[C@@H](NCC5CC5)C4)nn3)COC2)nn1 [Compound 212, (R)-N-(cyclopropylmethyl)-1-(6-(3-(4-(5-(pyrrolidin-1-yl)pyridin-3-yl)-1H-1,2,3-triazol-1-yl)oxetan-3-yl)pyridazin-3-yl)piperidin-3-amine] | ≥ 7.30 | ≥ 6.30 | ≥ 6.30
c1ncc(N2CCCC2)nc1-c1cn(C2(c3ccc(N4CCC[C@@H](NCC5CC5)C4)nn3)COC2)nn1 [Compound 213, (R)-N-(cyclopropylmethyl)-1-(6-(3-(4-(6-(pyrrolidin-1-yl)pyrazin-2-yl)-1H-1,2,3-triazol-1-yl)oxetan-3-yl)pyridazin-3-yl)piperidin-3-amine] | ≥ 7.30 | ≥ 6.30 | ≥ 6.30
CC1(C)CCN(c2cncc(-c3cn(C4(c5ccc(N6CCC[C@@H](NCC7CC7)C6)cn5)COC4)nn3)n2)C1 [Compound 214, (R)-N-(cyclopropylmethyl)-1-(6-(3-(4-(6-(3,3-dimethylpyrrolidin-1-yl)pyrazin-2-yl)-1H-1,2,3-triazol-1-yl)oxetan-3-yl)pyridin-3-yl)piperidin-3-amine] | ≥ 7.30 | ≥ 6.30 | ≥ 6.30
FC1(F)CCN(c2cncc(-c3cn(C4(c5ccc(N6CCC[C@@H](NCC7CC7)C6)cn5)COC4)nn3)n2)C1 [Compound 215, (R)-N-(cyclopropylmethyl)-1-(6-(3-(4-(6-(3,3-difluoropyrrolidin-1-yl)pyrazin-2-yl)-1H-1,2,3-triazol-1-yl)oxetan-3-yl)pyridin-3-V)piperidin-3-amine] | ≥ 7.30 | ≥ 6.30 | ≥ 6.30
c1cc(C2(n3cc(-c4cncc(N5CC6CC6C5)n4)nn3)COC2)ncc1N1CCC[C@@H](NCC2CC2)C1 (stereo partly drawn) [Compound 216, (3R)-1-(6-(3-(4-(6-(3-azabicyclo[3.1.0]hexan-3-yl)pyrazin-2-yl)-1H-1.2.3-triazol-1-yl)oxetan-3-yl)pyridin-3-yl)-N-(cyclopropylmethyl)piperidin-3-amine] | ≥ 7.30 | ≥ 6.30 | ≥ 6.30
O=C(Nc1cc(=O)n2ccccc2n1)C1(c2ccc(N3CCC[C@@H](NCC4CC4)C3)cn2)COC1 [Compound 217, (R)-3-(5-(3-((cyclopropylmethyl)amino)piperidin-1-yl)pyridin-2-yl)-N-(4-oxo-4H-pyrido[1,2-a]pyrimidin-2-yl)oxetane-3-carboxamide] | ≥ 7.30 | ≥ 6.30 | ≥ 6.30
c1cc(C2(n3cc(-c4cncc(N5CC6(COC6)C5)n4)nn3)COC2)ncc1N1CCC[C@@H](NCC2CC2)C1 [Compound 221, (R)-1-(6-(3-(4-(6-(2-oxa-6-azaspiro[3.3]heptan-6-yl)pyrazin-2-yl)-1H-1,2,3-triazol-1-yl)oxetan-3-yl)pyridin-3-yl)-N-(cyclopropylmethyl)piperidin-3-amine] | ≥ 7.30 | 5.30 to 6.30 | 5.30 to 6.30
c1cc(C2(n3cc(-c4cncc(N5CCC6(CC6)C5)n4)nn3)COC2)ncc1N1CCC[C@@H](NCC2CC2)C1 [Compound 222, (R)-1-(6-(3-(4-(6-(5-azaspiro[2.4]heptan-5-yl)pyrazin-2-yl)-1H-1,2,3-triazol-1-yl)oxetan-3-yl)pyridin-3-yl)-N-(cyclopropylmethyl)piperidin-3-amine] | ≥ 7.30 | ≥ 6.30 | ≥ 6.30
c1ncc(N2CCCC2)cc1-c1cn(C2(c3ccc(N4CCC[C@@H](NCC5CC5)C4)nc3)COC2)nn1 [Compound 223, (R)-N-(cyclopropylmethyl)-1-(5-(3-(4-(5-(pyrrolidin-1-yl)pyridin-3-yl)-1H-1,2,3-triazol-1-yl)oxetan-3-yl)pyridin-2-yl)piperidin-3-amine] | ≥ 7.30 | ≥ 6.30 | ≥ 6.30
CC(c1nnc(-c2cncc(N3CCCC3)n2)s1)n1ccc(N2CCC[C@@H](NCC3CC3)C2)cc1=O (stereo partly drawn) [Compound 228, 4-((R)-3-((cyclopropylmethyl)amino)piperidin-1-yl)-1-(1-(5-(6-(pyrrolidin-1-yl)pyrazin-2-yl)-1,3,4-thiadiazol-2-yl)ethyl)pyridin-2(1H)-one] | ≥ 7.30 | ≥ 6.30 | ≥ 6.30
CC(c1nnc(-c2cncc(N(C)C)n2)s1)n1ccc(N2CCC[C@@H](NCC3CC3)C2)cc1=O (stereo partly drawn) [Compound 231, 4-((R)-3-((cyclopropylmethyl)amino)piperidin-1-yl)-1-(1-(5-(6-(dimethylamino)pyrazin-2-yl)-1,3,4-thiadiazol-2-yl)ethyl)pyridin-2(1H)-one] | ≥ 7.30 | ≥ 6.30 | ≥ 6.30
CC(c1cnc(-c2cncc(N3CCCC3)n2)s1)n1ccc(N2CCC[C@@H](NCC3CC3)C2)cc1=O (stereo partly drawn) [Compound 233, 4-((R)-3-((cyclopropylmethyl)amino)piperidin-1-yl)-1-(1-(2-(6-(pyrrolidin-1-yl)pyrazin-2-yl)thiazol-5-yl)ethyl)pyridin-2(1H)-one] | ≥ 7.30 | ≥ 6.30 | ≥ 6.30
CC(n1cc(-c2cncc(N3CCC4(CC4)C3)n2)nn1)n1ccc(N2CCC[C@@H](NCC3CC3)C2)cc1=O (stereo partly drawn) [Compound 235, 1-(1-(4-(6-(5-azaspiro[2.4]heptan-5-yl)pyrazin-2-yl)-1H-1,2,3-triazol-1-yl)ethyl)-4-((R)-3-((cyclopropylmethyl)amino)piperidin-1-yl)pyridin-2(1H)-one] | ≥ 7.30 | ≥ 6.30 | ≥ 6.30
O=C(Nc1cc(=O)n2ccccc2n1)C1(c2ccc(N3CCC[C@@H](NCC4CCC4)C3)cn2)COC1 [Compound 239, (R)-3-(5-(3-((cyclobutylmethyl)amino)piperidin-1-yl)pyridin-2-yl)-N-(4-oxo-4H-pyrido[1,2-a]pyrimidin-2-yl)oxetane-3-carboxamide] | ≥ 7.30 | ≥ 6.30 | ≥ 6.30
C[C@@H]1CCN(c2cncc(-c3cn(C4(c5ccc(N6CCC[C@@H](NCC7CC7)C6)cn5)COC4)nn3)n2)C1 [Compound 244, (R)-N-(cyclopropylmethyl)-1-(6-(3-(4-(6-((R)-3-methylpyrrolidin-1-yl)pyrazin-2-yl)-1H-1,2,3-triazol-1-yl)oxetan-3-yl)pyridin-3-yl)piperidin-3-amine] | ≥ 7.30 | ≥ 6.30 | ≥ 6.30
O=C(Nc1cncc(N2CCCC2)n1)C1(c2ccc(N3CCC[C@@H](NCC4CC4)C3)cn2)COC1 [Compound 248, (R)-3-(5-(3-((cyclopropylmethyl)amino)piperidin-1-yl)pyridin-2-yl)-N-(6-(pyrrolidin-1-yl)pyrazin-2-yl)oxetane-3-carboxamide] | ≥ 7.30 | ≥ 6.30 | ≥ 6.30
COc1cncc(-c2cn(C3(c4ccc(N5CCC[C@@H](NCC6CC6)C5)cn4)COC3)nn2)c1 [Compound 249, (R)-N-(cyclopropylmethyl)-1-(6-(3-(4-(5-methoxypyridin-3-yl)-1H-1,2,3-triazol-1-yl)oxetan-3-yl)pyridin-3-yl)piperidin-3-amine] | ≥ 7.30 | ≥ 6.30 | ≥ 6.30
c1cc(C2(n3cnc(-c4cncc(N5CCCC5)n4)c3)COC2)ncc1N1CCC[C@@H](NCC2CC2)C1 [Compound 250, (R)-N-(cyclopropylmethyl)-1-(6-(3-(4-(6-(pyrrolidin-1-yl)pyrazin-2-yl)-1H-imidazol-1-yl)oxetan-3-yl)pyridin-3-yl)piperidin-3-amine] | ≥ 7.30 | ≥ 6.30 | ≥ 6.30
c1ncc(C2CC2)cc1-c1cn(C2(c3ccc(N4CCC[C@@H](NCC5CC5)C4)cn3)COC2)nn1 [Compound 256, (R)-N-(cyclopropylmethyl)-1-(6-(3-(4-(5-cyclopropylpyridin-3-yl)-1H-1,2,3-triazol-1-yl)oxetan-3-yl)pyridin-3-yl)piperidin-3-amine] | ≥ 7.30 | ≥ 6.30 | ≥ 6.30
CC(c1ccc(N2CCC[C@@H](NCC3CCC3)C2)nn1)n1cc(-c2cncc(N3CCCC3)c2)nn1 (stereo partly drawn) [Compound 257, (3R)—N-(cyclobutylmethyl)-1-(6-(1-(4-(5-(pyrrolidin-1-yl)pyridin-3-yl)-1H-1,2,3-triazol-1-yl)ethyl)pyridazin-3-yl)piperidin-3-amine] | ≥ 7.30 | ≥ 6.30 | ≥ 6.30
O=C(Nc1cncc(N2CCCC2)n1)C1(c2ccc(N3CCC[C@@H](NCC4CCC4)C3)cn2)COC1 [Compound 262, (R)-3-(5-(3-((cyclobutylmethyl)amino)piperidin-1-yl)pyridin-2-yl)-N-(6-(pyrrolidin-1-yl)pyrazin-2-yl)oxetane-3-carboxamide] | ≥ 7.30 | ≥ 6.30 | ≥ 6.30
